According to patent publication US20040242904A1, “Novel sordarin derivative isolated from culture fermentations and functions as an antifungal agent” (priority 2001, published 2004):
Values after ≈ are worked out from the molar mass of the structure shown. Where two headings read alike, the source gives them in different places.

Assays:
[1] = test system: C. lusitaniae in vitro translation; assay: In vitro translation assay, C. lusitaniae; assay type: biochemical; settings: average of three independent experiments
Protocol: (§1) In vitro translation assays were performed as described in Shastry, et al. Microbiology, 2001, 147(2):383-90. The IC50 values are the average of three independent experiments. The lower limit of sensitivity is about 0.005 μg/ml.

[2] = target: Human/SIII (S. cerevisiae strain expressing human eEF2) (UniProt P13639, cells depend on it, species not given); assay: SwordIII growth inhibition assay, Human/SIII strain; assay type: cell-based
Description: (§2) Sordarin and its derivatives bind to the eEF2-ribosome-nucleotide complex in sensitive fungi. Through different in vitro assays using purified components from human, yeast and plant cells, it has been shown that the selective sensitivity to sordarin and its derivatives is dependent on fungal eEF2. The fungal specificity of the sordarin makes eEF2 an attractive anti-infective target. (J Biol Chem. 1998, Feb 6; 273(6):3148-51).
(§3) Specifically, natural products are screened which show a differential activity between the human control and the other strains, although a 100% differential is not required in the initial discovery effort. It may be possible to observe hits solely against the fungal eEF2s, and/or the protozoal eEF2s. In sum, SWORDIII is designed to identify inhibitors of fungal and protozoal eEF2s to provide opportunities for developing anti-infective agents with a unique and selective mechanism of action.
(§4) For this reason, the eEF2 encoding genes from different organisms and several species of pathogenic fungi have been cloned, characterized and expressed in S. cerevisiae at Merck Research Laboratory, as previously described (Microbiology 147:383-90, 2001). Site directed mutagenesis of the C. parapsilosis gene encoding eEF2 to create S521Y, N523S single mutants and the S521Y, N523S double mutant was accomplished by the PCR overlap extension technique (Gene 77:51-59, 1989). […]

[3] = target: C. lusitaniae/SIII (S. cerevisiae strain expressing C. lusitaniae eEF2) (Clavispora lusitaniae, UniProt C4YCF8); assay: SwordIII growth inhibition assay, C. lusitaniae/SIII strain; assay type: cell-based
Description: as §2, §3, §4

[4] = test system: C. guilliermondi in vitro translation; assay: In vitro translation assay, C. guilliermondi; assay type: biochemical; settings: average of three independent experiments, lower limit of sensitivity about 0.005 μg/ml
Protocol: as §1

[5] = test system: A. nidulans in vitro translation; assay: In vitro translation assay, A. nidulans; assay type: biochemical; settings: average of three independent experiments
Protocol: as §1

[6] = target: A. fumigatus/SIII (S. cerevisiae strain expressing A. fumigatus eEF2) (Aspergillus fumigatus, UniProt Q4X0G7); assay: SwordIII growth inhibition assay, A. fumigatus/SIII strain; assay type: cell-based
Description: as §2, §3, §4

[7] = test system: C. glabrata in vitro translation; assay: In vitro translation assay, C. glabrata; assay type: biochemical; settings: average of three independent experiments
Protocol: as §1

[8] = test system: S. cerevisiae in vitro translation; assay: In vitro translation assay, S. cerevisiae; assay type: biochemical; settings: average of three independent experiments, lower limit of sensitivity about 0.005 μg/ml
Protocol: as §1

[9] = test system: C. neoformans in vitro translation; assay: In vitro translation assay, C. neoformans; assay type: biochemical; settings: average of three independent experiments
Protocol: as §1

[10] = test system: C. parapsilosis in vitro translation; assay: In vitro translation assay, C. parapsilosis; assay type: biochemical; settings: average of three independent experiments
Protocol: as §1

[11] = target: E. tenella/SIII (S. cerevisiae strain expressing E. tenella eEF2) (Eimeria tenella, UniProt A0A184W4F4); assay: SwordIII growth inhibition assay, E. tenella/SIII strain; assay type: cell-based
Description: as §2, §3, §4

[12] = test system: C. albicans in vitro translation; assay: In vitro translation assay, C. albicans; assay type: biochemical; settings: average of three independent experiments, lower limit of sensitivity about 0.005 μg/ml
Protocol: as §1

[13] = target: T1, S. cerevisiae/SIII (S. cerevisiae strain, S. cerevisiae eEF2) (Saccharomyces cerevisiae, UniProt P32324); assay: SwordIII growth inhibition assay, S. cerevisiae/SIII strain; assay type: cell-based
T1 construct: expressed in transfected cells; host or cells: S. cerevisiae Δeft1 Δeft2 deletion strain YEFD12h
Description: as §2, §3, §4

[14] = target: T2, C. glabrata/SIII (S. cerevisiae strain expressing C. glabrata eEF2) (Candida glabrata, UniProt Q6FYA7); assay: SwordIII growth inhibition assay, C. glabrata/SIII strain; assay type: cell-based
T2 construct: S. cerevisiae strains expressing full length heterologous eEF2s; expressed in transfected cells; host or cells: S. cerevisiae Δeft1 Δeft2 deletion strain YEFD12h
Description: as §2, §3, §4

[15] = target: C. neoformans/SIII (S. cerevisiae strain expressing C. neoformans eEF2) (Cryptococcus neoformans, UniProt Q9HFZ8); assay: SwordIII growth inhibition assay, C. neoformans/SIII strain; assay type: cell-based
Description: as §2, §3, §4

[16] = target: C. krusei/SIII (S. cerevisiae strain expressing C. krusei eEF2) (Pichia kudriavzevii, UniProt A0A2U9R6P9); assay: SwordIII growth inhibition assay, C. krusei/SIII strain; assay type: cell-based
Description: as §2, §3, §4

[17] = test system: C. krusei in vitro translation; assay: In vitro translation assay, C. krusei; assay type: biochemical; settings: average of three independent experiments
Protocol: as §1

[18] = SC medium, 29° C., approximately 16 hours, read-out: IC50 (μg/ml)
[19] = read-out: IC50 (μg/ml), SC medium, 29° C., approximately 16 hours

T2 sequence (Q6FYA7 whole entry): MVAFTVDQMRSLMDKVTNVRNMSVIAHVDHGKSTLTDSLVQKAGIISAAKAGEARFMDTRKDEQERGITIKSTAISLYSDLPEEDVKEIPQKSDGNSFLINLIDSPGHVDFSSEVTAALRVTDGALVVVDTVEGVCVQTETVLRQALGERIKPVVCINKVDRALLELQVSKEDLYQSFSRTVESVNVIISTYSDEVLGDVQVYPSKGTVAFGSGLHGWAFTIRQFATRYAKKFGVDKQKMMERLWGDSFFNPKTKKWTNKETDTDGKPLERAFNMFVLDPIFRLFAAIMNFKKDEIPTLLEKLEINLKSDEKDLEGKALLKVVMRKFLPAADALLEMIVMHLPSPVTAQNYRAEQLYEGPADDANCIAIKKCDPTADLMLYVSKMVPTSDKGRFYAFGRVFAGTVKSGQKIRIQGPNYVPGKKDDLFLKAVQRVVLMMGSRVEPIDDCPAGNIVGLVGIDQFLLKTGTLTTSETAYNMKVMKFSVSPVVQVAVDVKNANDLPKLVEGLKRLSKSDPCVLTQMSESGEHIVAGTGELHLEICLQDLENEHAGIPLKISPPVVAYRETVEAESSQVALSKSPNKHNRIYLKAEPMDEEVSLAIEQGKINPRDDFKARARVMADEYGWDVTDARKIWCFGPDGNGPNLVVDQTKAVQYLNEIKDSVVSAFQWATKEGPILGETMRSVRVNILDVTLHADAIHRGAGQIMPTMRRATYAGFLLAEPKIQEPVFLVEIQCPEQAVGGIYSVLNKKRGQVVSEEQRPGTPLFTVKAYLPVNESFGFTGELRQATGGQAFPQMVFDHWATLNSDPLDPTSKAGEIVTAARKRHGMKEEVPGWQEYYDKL
C. krusei/SIII (S. cerevisiae strain expressing C. krusei eEF2), sequence (A0A2U9R6P9 1-830, change not shown): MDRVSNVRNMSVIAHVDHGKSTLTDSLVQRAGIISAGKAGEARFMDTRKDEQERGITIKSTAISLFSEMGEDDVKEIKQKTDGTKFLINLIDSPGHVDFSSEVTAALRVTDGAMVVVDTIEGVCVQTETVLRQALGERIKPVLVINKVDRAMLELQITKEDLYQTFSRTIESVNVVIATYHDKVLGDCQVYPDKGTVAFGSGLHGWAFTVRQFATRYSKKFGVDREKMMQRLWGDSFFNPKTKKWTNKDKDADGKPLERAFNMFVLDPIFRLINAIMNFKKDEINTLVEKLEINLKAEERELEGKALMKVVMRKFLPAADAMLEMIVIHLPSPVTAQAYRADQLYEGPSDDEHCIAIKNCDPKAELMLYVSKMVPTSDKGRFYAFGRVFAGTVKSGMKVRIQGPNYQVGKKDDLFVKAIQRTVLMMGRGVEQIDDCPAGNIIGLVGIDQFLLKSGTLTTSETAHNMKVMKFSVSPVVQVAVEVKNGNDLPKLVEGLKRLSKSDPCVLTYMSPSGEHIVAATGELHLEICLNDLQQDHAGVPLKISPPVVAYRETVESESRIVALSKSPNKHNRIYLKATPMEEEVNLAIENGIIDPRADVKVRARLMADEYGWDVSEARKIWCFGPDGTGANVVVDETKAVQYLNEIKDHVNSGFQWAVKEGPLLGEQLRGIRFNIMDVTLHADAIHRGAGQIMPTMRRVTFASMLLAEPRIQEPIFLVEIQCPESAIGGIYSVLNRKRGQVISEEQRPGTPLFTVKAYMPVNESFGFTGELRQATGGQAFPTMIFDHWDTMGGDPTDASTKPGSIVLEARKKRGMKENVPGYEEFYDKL
E. tenella/SIII (S. cerevisiae strain expressing E. tenella eEF2), sequence (A0A184W4F4 1-832, change not shown): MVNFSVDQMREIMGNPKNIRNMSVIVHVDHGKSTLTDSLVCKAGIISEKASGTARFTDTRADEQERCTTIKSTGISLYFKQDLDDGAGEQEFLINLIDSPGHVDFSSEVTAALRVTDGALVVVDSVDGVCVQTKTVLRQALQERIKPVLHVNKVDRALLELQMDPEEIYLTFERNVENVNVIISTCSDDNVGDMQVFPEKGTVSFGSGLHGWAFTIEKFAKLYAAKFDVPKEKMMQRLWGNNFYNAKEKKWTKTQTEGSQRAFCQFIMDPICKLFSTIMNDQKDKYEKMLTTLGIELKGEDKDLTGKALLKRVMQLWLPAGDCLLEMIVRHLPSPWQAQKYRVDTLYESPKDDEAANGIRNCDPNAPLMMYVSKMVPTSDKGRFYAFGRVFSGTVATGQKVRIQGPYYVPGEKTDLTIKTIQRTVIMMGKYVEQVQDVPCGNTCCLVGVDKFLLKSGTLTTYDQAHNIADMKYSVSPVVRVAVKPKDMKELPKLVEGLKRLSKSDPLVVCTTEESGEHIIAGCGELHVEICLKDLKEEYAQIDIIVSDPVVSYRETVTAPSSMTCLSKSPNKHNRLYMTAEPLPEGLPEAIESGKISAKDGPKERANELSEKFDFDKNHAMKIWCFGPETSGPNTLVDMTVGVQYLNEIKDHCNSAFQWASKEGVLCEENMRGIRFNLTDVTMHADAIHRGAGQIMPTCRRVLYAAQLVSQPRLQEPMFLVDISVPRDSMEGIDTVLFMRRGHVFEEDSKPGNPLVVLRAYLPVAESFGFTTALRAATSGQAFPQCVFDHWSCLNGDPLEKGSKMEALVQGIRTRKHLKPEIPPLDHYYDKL
C. neoformans/SIII (S. cerevisiae strain expressing C. neoformans eEF2), sequence (Q9HFZ8 1-838, change not shown): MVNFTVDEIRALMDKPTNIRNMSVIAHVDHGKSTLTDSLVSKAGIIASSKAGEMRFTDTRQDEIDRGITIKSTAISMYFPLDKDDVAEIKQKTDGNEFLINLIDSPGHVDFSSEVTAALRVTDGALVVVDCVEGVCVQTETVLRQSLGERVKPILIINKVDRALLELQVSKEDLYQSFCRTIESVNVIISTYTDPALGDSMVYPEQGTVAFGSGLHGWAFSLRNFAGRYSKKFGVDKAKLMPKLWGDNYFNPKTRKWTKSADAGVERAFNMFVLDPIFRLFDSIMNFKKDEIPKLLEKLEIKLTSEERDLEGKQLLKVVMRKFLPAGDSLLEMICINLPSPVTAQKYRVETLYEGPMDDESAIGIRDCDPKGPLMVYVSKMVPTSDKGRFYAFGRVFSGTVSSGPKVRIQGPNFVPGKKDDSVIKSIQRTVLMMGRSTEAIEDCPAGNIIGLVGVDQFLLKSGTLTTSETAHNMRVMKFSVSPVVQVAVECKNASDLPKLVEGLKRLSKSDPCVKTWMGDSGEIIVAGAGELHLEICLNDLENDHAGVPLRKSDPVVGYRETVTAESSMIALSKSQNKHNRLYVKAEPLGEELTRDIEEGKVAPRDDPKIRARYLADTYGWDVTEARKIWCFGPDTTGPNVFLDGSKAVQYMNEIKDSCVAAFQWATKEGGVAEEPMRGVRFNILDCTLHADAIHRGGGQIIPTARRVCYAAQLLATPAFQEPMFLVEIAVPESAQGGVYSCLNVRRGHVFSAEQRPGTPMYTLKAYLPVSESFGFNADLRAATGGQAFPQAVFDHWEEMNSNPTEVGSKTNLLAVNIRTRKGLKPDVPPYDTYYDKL
T1 sequence (P32324 whole entry): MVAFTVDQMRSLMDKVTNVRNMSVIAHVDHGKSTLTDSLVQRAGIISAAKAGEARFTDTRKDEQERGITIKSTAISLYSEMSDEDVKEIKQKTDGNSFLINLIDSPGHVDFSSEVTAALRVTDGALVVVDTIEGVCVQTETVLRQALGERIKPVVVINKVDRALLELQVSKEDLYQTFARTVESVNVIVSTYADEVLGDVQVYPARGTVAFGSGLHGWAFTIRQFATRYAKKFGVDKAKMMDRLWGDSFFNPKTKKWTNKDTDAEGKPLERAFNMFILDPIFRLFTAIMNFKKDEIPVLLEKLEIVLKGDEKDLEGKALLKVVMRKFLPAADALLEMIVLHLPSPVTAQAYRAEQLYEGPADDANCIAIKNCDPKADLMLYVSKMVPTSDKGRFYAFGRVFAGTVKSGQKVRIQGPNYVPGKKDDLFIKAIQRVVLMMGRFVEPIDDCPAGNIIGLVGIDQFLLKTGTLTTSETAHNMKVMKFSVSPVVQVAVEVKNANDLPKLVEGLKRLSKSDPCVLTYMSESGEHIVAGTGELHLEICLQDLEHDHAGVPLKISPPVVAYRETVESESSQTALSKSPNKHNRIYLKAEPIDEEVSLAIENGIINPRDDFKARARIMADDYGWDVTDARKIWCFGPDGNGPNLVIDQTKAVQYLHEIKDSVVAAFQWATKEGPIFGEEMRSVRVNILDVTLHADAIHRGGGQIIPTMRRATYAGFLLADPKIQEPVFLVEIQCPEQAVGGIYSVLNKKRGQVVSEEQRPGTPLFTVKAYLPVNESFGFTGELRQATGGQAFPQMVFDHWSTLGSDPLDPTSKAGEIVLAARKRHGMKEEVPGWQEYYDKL
C. lusitaniae/SIII (S. cerevisiae strain expressing C. lusitaniae eEF2), sequence (C4YCF8 1-830, change not shown): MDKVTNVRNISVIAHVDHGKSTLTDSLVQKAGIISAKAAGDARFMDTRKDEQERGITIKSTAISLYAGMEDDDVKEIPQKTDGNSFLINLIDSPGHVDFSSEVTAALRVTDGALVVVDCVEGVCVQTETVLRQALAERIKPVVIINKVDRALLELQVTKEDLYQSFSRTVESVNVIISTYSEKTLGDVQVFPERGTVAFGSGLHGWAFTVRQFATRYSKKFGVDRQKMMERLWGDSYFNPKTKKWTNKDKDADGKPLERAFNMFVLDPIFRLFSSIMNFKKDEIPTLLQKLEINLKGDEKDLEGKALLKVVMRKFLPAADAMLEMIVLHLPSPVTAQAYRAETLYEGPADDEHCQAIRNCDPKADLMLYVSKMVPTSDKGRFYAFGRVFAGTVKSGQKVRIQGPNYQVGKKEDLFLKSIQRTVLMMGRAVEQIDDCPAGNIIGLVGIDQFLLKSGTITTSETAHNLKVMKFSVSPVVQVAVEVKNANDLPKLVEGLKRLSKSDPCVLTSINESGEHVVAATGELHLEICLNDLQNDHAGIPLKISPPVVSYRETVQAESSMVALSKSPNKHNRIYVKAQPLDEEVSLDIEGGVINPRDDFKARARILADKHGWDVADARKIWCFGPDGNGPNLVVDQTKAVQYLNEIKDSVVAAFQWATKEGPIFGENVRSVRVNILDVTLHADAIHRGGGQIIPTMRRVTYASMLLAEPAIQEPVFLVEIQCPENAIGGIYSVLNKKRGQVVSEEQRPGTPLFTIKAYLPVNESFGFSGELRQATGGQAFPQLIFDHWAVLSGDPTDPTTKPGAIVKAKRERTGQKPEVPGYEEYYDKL

SMILES | IC50 [1] | IC50 [4] | IC50 [5] | IC50 [7] | IC50 [8] | IC50 [9] | IC50 [10] | IC50 [12] | IC50 [13] | IC50 [14] | IC50 [17] | also measured
CO[C@H]1[C@@H](O)[C@H](O)[C@H](OC[C@@]23C[C@@H]4[C@H](C)CC[C@H]4[C@@]4(C=O)CC2C=C(C(C)C)[C@@]34C(=O)O)O[C@@H]1C [Sordarin] | >100 µg/mL | 0.01 µg/mL (≈ 0.0203 µM) | 2.6 µg/mL (≈ 5.28 µM) | 0.036 µg/mL (≈ 0.0731 µM) | 0.006 µg/mL (≈ 0.0122 µM) | 0.2 µg/mL (≈ 0.406 µM) | >100 µg/mL | 0.006 µg/mL (≈ 0.0122 µM) | 0.386 µM | 12.7 µM | >100 µg/mL | GI50 [2, 18]: > 203 µM; IC50 [3, 18]: > 203 µM; IC50 [6, 18]: > 203 µM; IC50 [11, 18]: > 203 µM; IC50 [15, 18]: > 203 µM; IC50 [16, 18]: > 203 µM
COC1C(C)OC(OCC23CC4C(C)CCC4C4(C=O)CC2C=C(C(C)C)C43C(=O)O)C(O)C12OC(=O)C(CCCCCCCC(=O)O)O2 (stereo not shown) [The Compound of Formula I] | 0.5 µg/mL | 0.006 µg/mL | 0.6 µg/mL | 0.015 µg/mL | 0.006 µg/mL | 0.02 µg/mL | 0.5 µg/mL | 0.006 µg/mL | 0.217 µM | 7.24 µM | 1 µg/mL | GI50 [2, 19]: > 29 µM; IC50 [3, 19]: > 29 µM; IC50 [6, 19]: 29 µM; IC50 [11, 19]: > 29 µM; IC50 [15, 19]: 7.24 µM; IC50 [16, 19]: 21.7 µM
